Measurements taken from PMC3762901, “Cyclic Peptide Inhibitors of the β-Sliding Clamp in Staphylococcus aureus” (PLoS ONE, 2013).

B1: cyclic DnaA1−86: spliced cyclic fragment of amino acids 1−86 (Domain I) of E. coli DnaA produced by SICLOPPS (protein, UniProt P03004 1-86, looked up, fragment)
chain: MSLSLWQQCLARLQDELPATEFSMWIRPLQAELSDNTLALYAPNRFVLDWVRDKYLNNINGLLTSFCGADAPQLRFEVGTKPVTQT
modifications: cyclized by SICLOPPS
notes: spliced cyclic fragment of amino acids 1−86 (Domain I) of E. coli DnaA produced by SICLOPPS

How the values were obtained:
[1] = test system: recA-lacZ transcriptional fusion (SOS response); test: SOS induction, recA-lacZ β-galactosidase; format: cell-based, Staphylococcus aureus; conditions: 2 μg/ml; after 210 minutes; LB, 37°C
Procedure: To test whether the cessation of DNA accumulation was accompanied by induction of the SOS response we measured the effects of both peptides on induction of the recA gene. Strain MTC157 contains a recA-lacZ transcriptional fusion in its chromosome. […] The level of induction was less that that observed for the DNA damaging agent mitomycin C (about 3-fold increase after 210 minutes). It is likely that both peptides results in malfunctioning of the replisome, and this provides the signal for SOS induction in these cells.
Figure 6 Peptide III-5 and III-6 induces the SOS response in S. aureus. S. aureus strain MTH157 (recA::lacZ) was grown exponentially in LB medium at 37°C. At an optical density OD600 = 0.1, Mitomycin C or Peptides III-5/III-6 were added to final concentrations of 2 μg/ml or 50 μg/ml, respectively. At the times indicated, samples were taken and the level of β-galactosidase determined (Materials and Methods).

E. coli = test: Intracellular expression of cyclic DnaA1-86 in E. coli (growth, morphology); format: cell-based, Escherichia coli; conditions: IntC::DnaA1-86::IntN induced with 2 mM IPTG, 30°C; effect attributed mainly to the cyclic fragment
Procedure: We used the SICLOPPS technology for intracellular synthesis of cyclic peptide libraries. Cyclic peptides were chosen over their linear counterparts to limit degradation by cellular proteases. We initially tested the SICLOPPS system by inserting the coding region for amino acids 1−86 (Domain I) of DnaA from E.coli between the C- and N-terminal parts of the split intein.
Figure 2 Intracellular production of cyclic DnaA1-86. Expression of IntC::DnaA1−86::IntN was induced by addition of 2 mM IPTG to cells growing exponentially at 30°C or by plating exponential growing cells on plates containing 2 mM IPTG followed by incubation at 30C. A. Intein-DnaA precursor and splice products were visualized by Western blot using polyclonal anti-DnaA antibodies. B. Growth on LB plates containing 2 mM IPTG (top) and phase-contrast images (bottom) of expressing IntC::IntN (left) or after three hours expression of IntC::DnaA1−86::IntN (right).
Because all cells contained a mix of precursor and splice product it was not clear which species were responsible for filamentation. We therefore mutated the splice site at the IntC-DnaA1−86 (IntC-HNS-DnaA1−86 to IntC-QYS-DnaA1−86) junction to prevent splicing.

| Molecule | Increase in β-galactosidase activity (recA-lacZ) [1] | Effect of intracellular expression on E. coli growth and morphology (E. coli) |
| --- | --- | --- |
| CO[C@@]12[C@H](COC(N)=O)C3=C(C(=O)C(C)=C(N)C3=O)N1C[C@@H]1N[C@@H]12 [mitomycin C] | about 3 fold |  |
| B1 |  | inhibition of growth and cell filamentation |
